Measured values reported in ChEMBL document CHEMBL2203275, “Design and synthesis of novel bis-thiazolone derivatives as micromolar CDC25 phosphatase inhibitors: effect of dimerisation on phosphatase inhibition” (Bioorg Med Chem Lett, 2012).

How the values were obtained:
[1] = target: T1, M-phase inducer phosphatase 2 (Homo sapiens, UniProt P30305); experiment: Inhibition of MBP-fused recombinant wild type CDC25B3 using fluorescein 3,6 diphosphate as substrate measured for 30 mins in presence of 1 mM dithiothreitol
T1 sequence (P30305 whole entry): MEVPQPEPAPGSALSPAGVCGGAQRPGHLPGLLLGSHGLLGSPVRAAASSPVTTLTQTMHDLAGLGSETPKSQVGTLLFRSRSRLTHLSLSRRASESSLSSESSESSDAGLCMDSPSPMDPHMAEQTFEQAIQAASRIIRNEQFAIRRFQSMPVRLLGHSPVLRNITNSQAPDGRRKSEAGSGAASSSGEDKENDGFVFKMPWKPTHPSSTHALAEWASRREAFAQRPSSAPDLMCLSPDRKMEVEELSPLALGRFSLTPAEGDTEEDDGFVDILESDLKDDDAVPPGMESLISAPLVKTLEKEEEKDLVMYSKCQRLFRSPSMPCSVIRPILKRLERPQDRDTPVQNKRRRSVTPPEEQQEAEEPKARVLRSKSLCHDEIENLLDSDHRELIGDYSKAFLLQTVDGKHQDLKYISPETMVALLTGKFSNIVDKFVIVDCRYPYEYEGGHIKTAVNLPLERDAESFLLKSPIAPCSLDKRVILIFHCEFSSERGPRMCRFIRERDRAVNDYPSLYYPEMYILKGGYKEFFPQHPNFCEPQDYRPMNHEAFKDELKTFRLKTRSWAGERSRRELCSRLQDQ

[2] = target: T2, Dual specificity protein phosphatase 3 (Homo sapiens, UniProt P51452); experiment: Inhibition of VHR using fluorescein 3,6 diphosphate as substrate at 100 uM measured for 1 hr in presence of 1 mM dithiothreitol
Target sequence in this assay (P51452 whole entry, looked up): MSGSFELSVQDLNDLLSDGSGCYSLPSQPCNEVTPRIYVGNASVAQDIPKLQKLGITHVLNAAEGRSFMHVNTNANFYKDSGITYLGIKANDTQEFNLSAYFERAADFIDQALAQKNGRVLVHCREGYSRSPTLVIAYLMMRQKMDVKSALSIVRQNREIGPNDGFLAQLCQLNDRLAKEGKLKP

[3] = target: T3, Tyrosine-protein phosphatase non-receptor type 1 (Homo sapiens) (UniProt P18031); experiment: Inhibition of PTP1B using fluorescein 3,6 diphosphate as substrate at 100 uM measured for 1 hr in presence of 1 mM dithiothreitol
T3 sequence (whole entry): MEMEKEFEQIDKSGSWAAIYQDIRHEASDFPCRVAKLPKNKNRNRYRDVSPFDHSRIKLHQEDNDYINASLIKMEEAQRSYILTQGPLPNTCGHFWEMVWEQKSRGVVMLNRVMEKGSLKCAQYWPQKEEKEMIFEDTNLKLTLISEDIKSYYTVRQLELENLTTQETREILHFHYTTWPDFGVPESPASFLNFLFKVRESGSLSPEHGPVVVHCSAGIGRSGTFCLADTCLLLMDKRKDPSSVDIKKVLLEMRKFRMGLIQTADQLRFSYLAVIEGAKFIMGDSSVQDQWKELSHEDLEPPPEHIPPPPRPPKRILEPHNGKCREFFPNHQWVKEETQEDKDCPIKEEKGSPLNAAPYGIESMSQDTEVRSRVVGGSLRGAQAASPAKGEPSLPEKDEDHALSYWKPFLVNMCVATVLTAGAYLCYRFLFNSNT

[4] = target: T4, Tyrosine-protein phosphatase non-receptor type 1 (Homo sapiens, UniProt P18031); experiment: Inhibition of PTP1B using fluorescein 3,6 diphosphate as substrate measured for 1 hr in presence of 1 mM dithiothreitol
T4 sequence (P18031 whole entry): T3 sequence (whole entry)

[5] = target: T2, Dual specificity protein phosphatase 3; experiment: Inhibition of VHR using fluorescein 3,6 diphosphate as substrate measured for 1 hr in presence of 1 mM dithiothreitol
Target sequence in this assay (P51452 whole entry): as the sequence (P51452 whole entry, looked up) above

[6] = target: T3, Tyrosine-protein phosphatase non-receptor type 1 (Homo sapiens); experiment: Inhibition of PTP1B using fluorescein 3,6 diphosphate as substrate at 50 uM measured for 1 hr in presence of 1 mM dithiothreitol
[7] = target: T5, M-phase inducer phosphatase 2 (Homo sapiens) (UniProt P30305); experiment: Inhibition of MBP-fused recombinant wild type CDC25B3 using fluorescein 3,6 diphosphate as substrate at 100 uM measured for 30 mins in presence of 1 mM dithiothreitol
T5 sequence (whole entry): T1 sequence (P30305 whole entry)

[8] = target: T3, Tyrosine-protein phosphatase non-receptor type 1 (Homo sapiens); experiment: Inhibition of PTP1B using fluorescein 3,6 diphosphate as substrate at 10 uM measured for 1 hr in presence of 1 mM dithiothreitol
[9] = target: T2, Dual specificity protein phosphatase 3; experiment: Inhibition of VHR using fluorescein 3,6 diphosphate as substrate at 10 uM measured for 1 hr in presence of 1 mM dithiothreitol
Target sequence in this assay (P51452 whole entry, looked up): as the sequence (P51452 whole entry, looked up) above

[10] = target: T1, M-phase inducer phosphatase 2; experiment: Inhibition of MBP-fused recombinant wild type CDC25B3 using fluorescein 3,6 diphosphate as substrate measured for 30 mins in presence of 10 mM dithiothreitol
[11] = target: T1, M-phase inducer phosphatase 2; experiment: Inhibition of MBP-fused recombinant wild type CDC25B3 using fluorescein 3,6 diphosphate as substrate measured for 30 mins in presence of 20 mM dithiothreitol

O=C1N=C(NCCCCCCCNC2=NC(=O)/C(=C/c3ccc4c(c3)OCO4)S2)S/C1=C\c1ccc2c(c1)OCO2
IC50 [1]: 13.8 µM | inhibition [2]: 27% | inhibition [3]: 30%

O=C1N=C(NCc2cccc(CNC3=NC(=O)/C(=C/c4ccc(O)cc4)S3)c2)S/C1=C\c1ccc(O)cc1
IC50 [4]: 9.1 µM

O=C1N=C(NCCCCCCCNC2=NC(=O)/C(=C/c3ccc(O)c(O)c3)S2)S/C1=C\c1ccc(O)c(O)c1
IC50 [4]: 23.4 µM

O=C1N=C(NCCCCCNC2=NC(=O)/C(=C/c3ccc(O)cc3)S2)S/C1=C\c1ccc(O)cc1
IC50 [1]: 13.9 µM | IC50 [4]: 20.6 µM | IC50 [5]: 75.8 µM

O=C1N=C(NCCCCCCCNC2=NC(=O)/C(=C/c3ccccc3)S2)S/C1=C\c1ccccc1
IC50 [4]: 41.3 µM

O=C1N=C(NCCCCNC2=NC(=O)/C(=C/c3ccc(O)cc3)S2)S/C1=C\c1ccc(O)cc1
IC50 [4]: 28.4 µM

COc1cc(/C=C2\SC(NCCCCCCCNC3=NC(=O)/C(=C/c4cc(OC)c(O)c(OC)c4)S3)=NC2=O)cc(OC)c1O
inhibition [3]: 2%

CCCCCNC1=NC(=O)/C(=C/c2ccc(O)cc2)S1
inhibition [3]: 35%

O=C1N=C(NCCCn2cc(CCNC3=NC(=O)/C(=C/c4ccc(O)cc4)S3)nn2)S/C1=C\c1ccc(O)cc1
inhibition [6]: 20% | IC50 [1]: 20.6 µM | inhibition [2]: 55%

O=C(O)/C=C/c1ccc(/C=C2\SC(NCCCCCCCNC3=NC(=O)/C(=C/c4ccc(/C=C/C(=O)O)cc4)S3)=NC2=O)cc1
IC50 [4]: 26.9 µM

O=C1N=C(NCc2ccccc2)S/C1=C\c1ccc(O)cc1
inhibition [2]: 8% | inhibition [3]: 46% | inhibition [7]: 45%

CCCCNC1=NC(=O)/C(=C/c2ccc(O)cc2)S1
inhibition [3]: 35%

O=C1N=C(NCCCc2cn(CCNC3=NC(=O)/C(=C/c4ccc(O)cc4)S3)nn2)S/C1=C\c1ccc(O)cc1
inhibition [6]: 35%

O=C1N=C(NCCCCCCCNC2=NC(=O)/C(=C/c3ccc(O)cc3)S2)S/C1=C\c1ccc(O)cc1
IC50 [4]: 30.6 µM

O=C1N=C(NCCN2CCN(CCNC3=NC(=O)/C(=C/c4ccc5[nH]ncc5c4)S3)CC2)S/C1=C\c1ccc(O)cc1
inhibition [3]: 18%

O=C1N=C(NCCCCCCCNC2=NC(=O)/C(=C/C=C/c3ccccc3)S2)S/C1=C\C=C\c1ccccc1
IC50 [1]: 7.7 µM | inhibition [2]: 34% | inhibition [3]: 51%

O=C1N=C(NCCN2CCN(CCNC3=NC(=O)/C(=C/c4cc(Br)c(O)c(Br)c4)S3)CC2)S/C1=C\c1ccc(O)cc1
inhibition [3]: 100% | inhibition [8]: 33%

O=C1N=C(NCCN2CCN(CCNC3=NC(=O)/C(=C/c4ccc(O)cc4)S3)CC2)S/C1=C\c1ccc(O)cc1
IC50 [4]: 46 µM

O=C1N=C(NCCCCCCCCNC2=NC(=O)/C(=C/c3ccc(O)cc3)S2)S/C1=C\c1ccc(O)cc1
IC50 [1]: 3.9 µM | IC50 [4]: 11.6 µM | inhibition [2]: 29%

O=C1N=C(NCCCn2cc(CNC3=NC(=O)/C(=C/c4ccc(O)cc4)S3)nn2)S/C1=C\c1ccc(O)cc1
inhibition [6]: 25%

O=C1N=C(NCCCc2cn(CCCNC3=NC(=O)/C(=C/c4ccc(O)cc4)S3)nn2)S/C1=C\c1ccc(O)cc1
inhibition [6]: 50%

O=C1N=C(NCCCCCCCCCNC2=NC(=O)/C(=C/c3ccc(O)cc3)S2)S/C1=C\c1ccc(O)cc1
IC50 [4]: 6.2 µM

O=C1N=C(NCC2CCCC(CNC3=NC(=O)/C(=C/c4ccc(O)cc4)S3)C2)S/C1=C\c1ccc(O)cc1 (stereo not drawn)
IC50 [1]: 6.6 µM | IC50 [4]: 9 µM | inhibition [2]: 30%

O=C1N=C(NCCCCCCNC2=NC(=O)/C(=C/c3ccc(O)cc3)S2)S/C1=C\c1ccc(O)cc1
IC50 [4]: 12.4 µM

O=C1N=C(NCCN2CCN(CCNC3=NC(=O)/C(=C/c4ccc(O)cc4)S3)CC2)S/C1=C\C=C\c1ccco1
inhibition [3]: 39%

O=C1N=C(NCCCCCCCNC2=NC(=O)/C(=C/c3ccc(-c4ccccc4)o3)S2)S/C1=C\c1ccc(-c2ccccc2)o1
inhibition [3]: 50%

O=C1N=C(NCCN2CCN(CCNC3=NC(=O)/C(=C/c4ccc(O)cc4)S3)CC2)S/C1=C\C=C\c1ccccc1
inhibition [3]: 13%

O=C1N=C(NCCN2CCN(CCNC3=NC(=O)/C(=C/c4ccc5c(c4)OCO5)S3)CC2)S/C1=C\c1ccc(O)cc1
IC50 [1]: 4.4 µM | inhibition [2]: 29% | inhibition [3]: 19%

CC1=CC(=O)c2ccccc2C1=O [MENADIONE]
IC50 [1]: 2.2 µM

O=C1N=C(NCCCCCCCNC2=NC(=O)/C(=C/c3cc(Br)c(O)c(Br)c3)S2)S/C1=C\c1cc(Br)c(O)c(Br)c1
IC50 [1]: 1.38 µM | IC50 [4]: 24.2 µM | inhibition [2]: 100% | inhibition [9]: 31% | IC50 [10]: 3.1 µM | IC50 [11]: 3.2 µM

CNC1=NC(=O)/C(=C/c2ccc(O)cc2)S1
inhibition [3]: 32%
